Test results taken from ChEMBL document CHEMBL3885881, “DrugMatrix”.

Organism: Rattus norvegicus
Assay: DrugMatrix - Regimen: Daily Repeat
Type: toxicity, organism-based, Sprague-Dawley
Parameters: regimen Daily Repeat, gender Male, age 6-8 weeks
Settings: in vivo, po, route oral GAVAGE, […]; for ABSOLUTE BASOPHIL / ABSOLUTE EOSINOPHIL / ABSOLUTE LYMPHOCYTE / ABSOLUTE MONOCYTE / ABSOLUTE SEGMENTED NEUTROPHIL / BASOPHIL / EOSINOPHIL / ERYTHROCYTE COUNT / HEMATOCRIT / HEMOGLOBIN / LEUKOCYTE COUNT / LYMPHOCYTE / MEAN CORPUSCULAR HEMOGLOBIN / MEAN CORPUSCULAR HEMOGLOBIN CONCENTRATION / MEAN CORPUSCULAR VOLUME / MONOCYTE / NEUTROPHIL / NUCLEATED RED BLOOD CELLS / PLATELET COUNT: tissue Blood; for ALANINE AMINOTRANSFERASE / ALBUMIN / ALKALINE PHOSPHATASE / ASPARTATE AMINOTRANSFERASE / BLOOD UREA NITROGEN / CARBON DIOXIDE / CHLORIDE / CHOLESTEROL / CREATINE PHOSPHOKINASE / CREATININE / GLUCOSE / LACTATE DEHYDROGENASE / LIPASE / PHOSPHORUS / POTASSIUM / SODIUM / TOTAL BILIRUBIN / TOTAL PROTEIN / URIC ACID: tissue Plasma
[1] = 50 mg/kg, 120 h, dose level Low, time 5 day
[2] = 175 mg/kg, 72 h, dose level High, time 3 day
[3] = 175 mg/kg, 120 h, dose level High, time 5 day

## Oc1ncnc2[nH]ncc12 [ALLOPURINOL]
[1]
  ABSOLUTE BASOPHIL: 0 CELLS/uL
  ABSOLUTE EOSINOPHIL: 49 CELLS/uL
  ABSOLUTE LYMPHOCYTE: 17802 CELLS/uL
  ABSOLUTE MONOCYTE: 49 CELLS/uL
  ABSOLUTE SEGMENTED NEUTROPHIL: 1133.33 CELLS/uL
  BASOPHIL: 0%
  EOSINOPHIL: 0.33%
  ERYTHROCYTE COUNT: 5.63 x10E6/uL
  HEMATOCRIT: 35.03%
  HEMOGLOBIN: 13.73 G/DL
  LEUKOCYTE COUNT: 19.03 x10E3/uL
  LYMPHOCYTE: 93%
  MEAN CORPUSCULAR HEMOGLOBIN: 24.47 pg
  MEAN CORPUSCULAR HEMOGLOBIN CONCENTRATION: 39.27 G/DL
  MEAN CORPUSCULAR VOLUME: 62.33 fL
  MONOCYTE: 0.33%
  NEUTROPHIL: 6.33%
  NUCLEATED RED BLOOD CELLS: 0 /100WBC
  PLATELET COUNT: 1236.33 x10E3/uL
  ALANINE AMINOTRANSFERASE: 56.33 u/L
  ALBUMIN: 3.97 G/DL
  ALKALINE PHOSPHATASE: 308 u/L
  ASPARTATE AMINOTRANSFERASE: 104 u/L
  BLOOD UREA NITROGEN: 20 mg/dL
  CARBON DIOXIDE: 27 mmol/L
  CHLORIDE: 100 MEQ/L
  CHOLESTEROL: 65.33 mg/dL
  CREATINE PHOSPHOKINASE: 626 u/L
  CREATININE: 0.41 mg/dL
  GLUCOSE: 169.33 mg/dL
  LACTATE DEHYDROGENASE: 263.33 u/L
  LIPASE: 10 u/L
  PHOSPHORUS: 9.7 mg/dL
  POTASSIUM: 5.66 MEQ/L
  SODIUM: 141.17 MEQ/L
  TOTAL BILIRUBIN: 0.2 mg/dL
  TOTAL PROTEIN: 5.6 G/DL
  URIC ACID: 0.83 mg/dL
[2]
  ABSOLUTE BASOPHIL: 0 CELLS/uL
  ABSOLUTE EOSINOPHIL: 0 CELLS/uL
  ABSOLUTE LYMPHOCYTE: 8294 CELLS/uL
  ABSOLUTE MONOCYTE: 350.5 CELLS/uL
  ABSOLUTE SEGMENTED NEUTROPHIL: 4205.5 CELLS/uL
  BASOPHIL: 0%
  EOSINOPHIL: 0%
  ERYTHROCYTE COUNT: 5.27 x10E6/uL
  HEMATOCRIT: 32.2%
  HEMOGLOBIN: 12.95 G/DL
  LEUKOCYTE COUNT: 12.85 x10E3/uL
  LYMPHOCYTE: 64%
  MEAN CORPUSCULAR HEMOGLOBIN: 24.55 pg
  MEAN CORPUSCULAR HEMOGLOBIN CONCENTRATION: 40.3 G/DL
  MEAN CORPUSCULAR VOLUME: 61.1 fL
  MONOCYTE: 3%
  NEUTROPHIL: 33%
  NUCLEATED RED BLOOD CELLS: 0 /100WBC
  PLATELET COUNT: 1127 x10E3/uL
  ALANINE AMINOTRANSFERASE: 101 u/L
  ALBUMIN: 3.9 G/DL
  ALKALINE PHOSPHATASE: 397.5 u/L
  ASPARTATE AMINOTRANSFERASE: 153.5 u/L
  BLOOD UREA NITROGEN: 113.5 mg/dL
  CARBON DIOXIDE: 24.5 mmol/L
  CHLORIDE: 93 MEQ/L
  CHOLESTEROL: 99 mg/dL
  CREATINE PHOSPHOKINASE: 283.5 u/L
  CREATININE: 3.31 mg/dL
  GLUCOSE: 154.5 mg/dL
  LACTATE DEHYDROGENASE: 217.5 u/L
  LIPASE: 12 u/L
  PHOSPHORUS: 16.65 mg/dL
  POTASSIUM: 6.46 MEQ/L
  SODIUM: 141.2 MEQ/L
  TOTAL BILIRUBIN: 0.35 mg/dL
  TOTAL PROTEIN: 6.55 G/DL
  URIC ACID: 0.2 mg/dL
[3]
  ABSOLUTE BASOPHIL: 0 CELLS/uL
  ABSOLUTE EOSINOPHIL: 81.33 CELLS/uL
  ABSOLUTE LYMPHOCYTE: 15570.33 CELLS/uL
  ABSOLUTE MONOCYTE: 599.67 CELLS/uL
  ABSOLUTE SEGMENTED NEUTROPHIL: 6148.67 CELLS/uL
  BASOPHIL: 0%
  EOSINOPHIL: 0.33%
  ERYTHROCYTE COUNT: 5.7 x10E6/uL
  HEMATOCRIT: 35.5%
  HEMOGLOBIN: 13.77 G/DL
  LEUKOCYTE COUNT: 22.4 x10E3/uL
  LYMPHOCYTE: 69.33%
  MEAN CORPUSCULAR HEMOGLOBIN: 24.17 pg
  MEAN CORPUSCULAR HEMOGLOBIN CONCENTRATION: 38.8 G/DL
  MEAN CORPUSCULAR VOLUME: 62.27 fL
  MONOCYTE: 2.67%
  NEUTROPHIL: 27.67%
  NUCLEATED RED BLOOD CELLS: 0 /100WBC
  PLATELET COUNT: 1373 x10E3/uL
  ALANINE AMINOTRANSFERASE: 78.67 u/L
  ALBUMIN: 3.73 G/DL
  ALKALINE PHOSPHATASE: 409 u/L
  ASPARTATE AMINOTRANSFERASE: 102 u/L
  BLOOD UREA NITROGEN: 46.33 mg/dL
  CARBON DIOXIDE: 26.33 mmol/L
  CHLORIDE: 105.33 MEQ/L
  CHOLESTEROL: 83.67 mg/dL
  CREATINE PHOSPHOKINASE: 242.33 u/L
  CREATININE: 1.36 mg/dL
  GLUCOSE: 145 mg/dL
  LACTATE DEHYDROGENASE: 182.33 u/L
  LIPASE: 10.33 u/L
  PHOSPHORUS: 7.7 mg/dL
  POTASSIUM: 6.87 MEQ/L
  SODIUM: 149 MEQ/L
  TOTAL BILIRUBIN: 0.2 mg/dL
  TOTAL PROTEIN: 5.87 G/DL
  URIC ACID: 0.2 mg/dL
